Source: ChEMBL document CHEMBL1131857, “Quinolizidinyl derivatives of 5,11-dihydro-6H-pyrido[2,3-b][1,4]benzodiazepin-6-one as ligands for muscarinic receptors” (Bioorg Med Chem Lett, 1999)
Values belong to the compound of their own block, whether it stands above or below them.

Tests used:
[1] = molecular target: T1, Muscarinic acetylcholine receptor M1 (Rattus norvegicus, UniProt P08482); experiment: Displacement of [3H]pirenzepine binding to muscarinic M1 receptor in brain cortex of rat.; type: tissue-based
T1 sequence (P08482 whole entry): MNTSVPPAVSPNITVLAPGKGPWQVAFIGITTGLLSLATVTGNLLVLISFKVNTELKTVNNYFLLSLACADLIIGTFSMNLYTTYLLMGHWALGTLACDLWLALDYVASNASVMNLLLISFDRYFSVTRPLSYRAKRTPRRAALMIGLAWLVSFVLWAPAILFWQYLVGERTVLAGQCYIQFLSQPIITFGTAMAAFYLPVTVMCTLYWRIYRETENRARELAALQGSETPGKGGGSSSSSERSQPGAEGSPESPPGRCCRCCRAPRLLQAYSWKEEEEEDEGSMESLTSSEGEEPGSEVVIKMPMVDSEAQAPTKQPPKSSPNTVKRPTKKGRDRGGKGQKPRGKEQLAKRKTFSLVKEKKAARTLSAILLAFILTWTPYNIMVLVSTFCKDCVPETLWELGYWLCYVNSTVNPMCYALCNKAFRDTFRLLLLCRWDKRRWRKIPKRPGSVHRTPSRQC

[2] = molecular target: Muscarinic acetylcholine receptor M3 (Rattus norvegicus, UniProt P08483); experiment: Displacement of [3H]methylscopolamine binding to muscarinic M3 receptor in submaxillary salivary glands of rats.; type: tissue-based, Salivary gland
Sequence of Muscarinic acetylcholine receptor M3 (P08483 whole entry): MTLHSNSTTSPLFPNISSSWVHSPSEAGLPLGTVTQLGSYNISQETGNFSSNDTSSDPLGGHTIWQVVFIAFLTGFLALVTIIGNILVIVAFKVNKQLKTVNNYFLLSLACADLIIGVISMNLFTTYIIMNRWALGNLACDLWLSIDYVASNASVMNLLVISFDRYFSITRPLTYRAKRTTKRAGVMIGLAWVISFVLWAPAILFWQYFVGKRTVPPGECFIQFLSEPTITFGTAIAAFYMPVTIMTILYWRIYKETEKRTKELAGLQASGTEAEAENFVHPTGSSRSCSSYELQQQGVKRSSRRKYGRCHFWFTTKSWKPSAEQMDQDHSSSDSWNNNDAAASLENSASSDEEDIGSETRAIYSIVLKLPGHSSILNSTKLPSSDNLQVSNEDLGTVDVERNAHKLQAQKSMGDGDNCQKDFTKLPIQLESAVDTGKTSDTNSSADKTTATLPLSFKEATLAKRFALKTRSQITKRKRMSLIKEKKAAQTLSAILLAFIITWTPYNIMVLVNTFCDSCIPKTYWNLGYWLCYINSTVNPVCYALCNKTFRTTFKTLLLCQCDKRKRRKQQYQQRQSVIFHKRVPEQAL

[3] = molecular target: T2, Muscarinic acetylcholine receptor M2 (Rattus norvegicus, UniProt P10980); experiment: Displacement of [3H]methylscopolamine binding to muscarinic M2 receptor in rat heart.
T2 sequence (P10980 whole entry): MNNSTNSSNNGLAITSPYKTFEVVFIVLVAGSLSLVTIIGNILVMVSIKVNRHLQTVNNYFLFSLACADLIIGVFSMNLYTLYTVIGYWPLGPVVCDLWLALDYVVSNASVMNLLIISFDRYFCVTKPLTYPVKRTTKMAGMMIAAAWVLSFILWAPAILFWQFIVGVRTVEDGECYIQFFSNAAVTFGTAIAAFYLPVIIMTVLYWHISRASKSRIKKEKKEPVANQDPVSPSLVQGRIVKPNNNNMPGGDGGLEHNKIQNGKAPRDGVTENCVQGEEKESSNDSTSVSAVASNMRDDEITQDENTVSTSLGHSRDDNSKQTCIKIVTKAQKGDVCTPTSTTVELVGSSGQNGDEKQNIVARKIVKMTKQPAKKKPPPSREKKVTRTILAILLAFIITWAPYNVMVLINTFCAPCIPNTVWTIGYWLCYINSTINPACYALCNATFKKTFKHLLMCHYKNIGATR

SMILES: O=C1Nc2cccnc2N(C(=O)C[C@@H]2CCCN3CCCCC23)c2ccccc21 (some centres undefined)
IC50 [1]: 110 nM
IC50 [2]: > 10000 nM
IC50 [3]: 6000 nM

SMILES: O=C1Nc2cccnc2N(C(=O)C[C@H]2CCCN3CCCCC23)c2ccccc21 (some centres undefined)
IC50 [1]: 40 nM
IC50 [2]: 3500 nM
IC50 [3]: 1900 nM

SMILES: O=C1Nc2ccccc2N(C(=O)CC2CCCN3CCCCC23)c2ncccc21 (centres undefined)
IC50 [1]: 650 nM
IC50 [2]: > 10000 nM
IC50 [3]: 6800 nM

SMILES: O=C1Nc2cccnc2N(C(=O)CNCC2CCCN3CCCCC23)c2ccccc21 (centres undefined)
IC50 [1]: 28 nM
IC50 [2]: 800 nM
IC50 [3]: 1000 nM

SMILES: O=C1c2ccccc2-n2c(nc3cccnc32)CN1C[C@@H]1CCCN2CCCC[C@H]12
IC50 [1]: 1200 nM
IC50 [2]: > 10000 nM
IC50 [3]: 12000 nM

These reach a lower IC50 [1]. Values come first.

IC50 [1]: 10 nM
IC50 [2]: 760 nM
IC50 [3]: 760 nM
SMILES: O=C1Nc2cccnc2N(C(=S)CC2CCCN3CCCC[C@@H]23)c2ccccc21 (some centres undefined)

IC50 [1]: 8 nM
IC50 [2]: 1300 nM
IC50 [3]: 2400 nM
SMILES: Cc1cc(C(=O)c2ccccc2)ccc1NC(=O)CC1CCCN2CCCC[C@H]12 (some centres undefined)

IC50 [1]: 10 nM
IC50 [2]: 760 nM
IC50 [3]: 760 nM
SMILES: O=C1Nc2cccnc2N(C(=O)CSCC2CCCN3CCCCC23)c2ccccc21 (centres undefined)
